Among the data in a melting point compilation (Tetko et al.; mined from patent text by program, amines drawn as free bases though some values may be those of a salt) are melting point values, retold here.

Non-standard residues stand in square brackets, D forms with d. Residues, ends and D or L forms follow the SMILES beside them. *: point of attachment. Npys = O=[N+]([O-])c1cccnc1S*; Leu(ol) = CC(C)C[C@H](N)CO; Mpa = O=C(O)CCS

For orientation: melting point means the temperature of the solid-liquid transition. The molecule `O=C(NCC(Cc1ccccc1)C(=O)Nc1n[nH]c(=S)s1)OCc1ccccc1` (configuration not stated) gave a melting point of 88 to 90 °C.

`COc1ccc(CCNC(=O)C(F)(F)F)cc1OC` registered a melting point of 93 °C.

`CCC(=O)Nc1c(C#N)cnn1-c1ccc(OC(F)(F)F)cc1Cl`: the melting point turned out to be 127 °C.

Molecule `COC(=O)c1cc(C(=O)c2ccccc2)ccc1OC` came in with a melting point of 88 °C.

On to `CCCCN(CCCC)CCCOc1ccc(S(=O)(=O)c2ncsc2-c2ccccc2)cc1`, for which the melting point is 110 °C.

In turn, `Cc1[nH]cnc1-c1cc(C(C)(C)C)c(O)c(C(C)(C)C)c1` returned a melting point of 207 to 209 °C.

Molecule `CC(C)CCc1cc(C(O)=S)cc(N)c1C(=O)c1ccccc1` returned a melting point of 141 to 142 °C.

Molecule `CC1(N2C(=O)c3cccc(NCc4ccco4)c3C2=O)CCC(=O)NC1=O` (configuration not stated) gave a melting point of 158 to 160 °C.

`COc1cc2ncnc(N3CCCCc4ccc(Br)cc43)c2cc1OC` returned a melting point of 209 to 217 °C.

In turn, `CCCCCCCc1ccc(C(=O)Cc2ccccc2C(=O)O)cc1` registered a melting point of 128 to 131 °C.

As for `CCc1nc2c(cnn2CC)c(NC2CCOCC2)c1CNC(=O)c1cccc(C(=O)NCc2ccc(OC)c(-c3cccc(C=O)c3)c2)c1`, the melting point is 118 to 121 °C.

Regarding `CC(C)(C)c1csc(-c2cc3cc(CCc4ccccc4C(=O)O)ccc3o2)n1`, the melting point was in the range of 147 to 148 °C.

As to `CC1(C)CCC(=O)Nc2cc(Nc3ncc4cc5ccccc5n4n3)ccc21`, the melting point fell in the range of 230 to 240 °C.

Consider `COc1ccccc1CC(=O)NCc1cccs1`, for which the melting point came out at 84 °C.

`N=C(N)c1ccc(O)c([N+](=O)[O-])c1` yielded a melting point greater than 240 °C.

On to `CCCCc1c(C(=O)N(C)Cc2ccc3c(Br)c(OCc4nnn[nH]4)ccc3c2)c2ccccc2n1C`, for which the melting point fell in the range of 147 to 149 °C.

`O=C(Cc1ccccc1)N1CC2COCC2C1` (configuration not stated) came in with a melting point of 47.5 to 48.5 °C.

`N#CCCNC(=O)c1cccc(-c2ccc3c(n2)N(Cc2ccc(Cl)cc2Cl)CC3)c1` had a melting point of 156 to 157 °C.

On to `OCc1ccc(-c2ccc3nnn(Cc4ccc(F)cc4)c3n2)cc1`, for which the melting point lay in the range of 210 to 213 °C.

In turn, `CCCCCCCCCCOc1ccc(OCc2ccccc2)c(C(=O)OC)c1` gave a melting point of 32 to 34 °C.

With `c1csc(CNc2nc(-n3ccnc3)nc3ccccc23)c1`, the melting point lay in the range of 234 to 235 °C.

`CS(=O)(=O)c1ccc(-c2cnn(-c3ccc(F)c(Cl)c3)c(=O)c2C2CCCCC2)cc1`: the melting point lay in the range of 180 to 181 °C.

Take `O=C1C(=Cc2c(Cl)cccc2Cl)CCc2ccccc21`: the melting point was 73.8 to 75.6 °C.

The molecule `O=C1C2CCCCC2(Cl)C(=O)N1c1ccc(Cl)cc1` (configuration not stated) yielded a melting point of 116 to 118 °C.

`O=C(NCc1ccccc1)c1ccccc1-c1ccccc1CNS(=O)(=O)c1cccc(C(F)(F)F)c1` had a melting point of 126 °C.

In turn, `CNc1nc(N)nc2c1ncn2C1C=CC(CO)C1` (configuration not stated) returned a melting point of 221 to 223 °C.

The molecule `CC(C)n1nc(-c2c(-c3ccccc3)nn3ccc(OCCC4CCCC4)cc23)ccc1=O` had a melting point of 160 °C.

`Cc1ccc(C)c2c(C=O)c3ccccc3c(C=O)c12` yielded a melting point of 158 to 162 °C.

In the case of `COc1cc(OC)c2c(=O)[nH]c(-c3cc(C)c(O)c(C)c3)nc2c1`, the melting point was 291 to 293 °C.

As for `CCC(CC(=O)O)c1ccc(C(=O)OC)cc1` (configuration not stated), the melting point was in the range of 165 to 166 °C.

`Cc1nc(N)sc1S(=O)(=O)N(C)CCO` registered a melting point of 118 °C.

For the molecule `O=[N+]([O-])c1ccc(-c2cccnc2)cc1`, the melting point is 145 to 148 °C.

In turn, `CC=Cn1c(=S)sc2c(=N)n(NC(=O)c3ccco3)cnc21` returned a melting point of 218 °C.

In turn, `CCC(CC)(CO)NC(=S)NC(=O)c1ccccc1` had a melting point of 161 to 163 °C.

As for `CC1OC(Cn2cncn2)(c2ccccc2)C1(C)C` (configuration not stated), the melting point came to 102 °C.

Molecule `O=C(O)c1cc(S(=O)(=O)N2CC=CCC2)ccc1Cl` registered a melting point of 180 to 182 °C.

Regarding `CC(C)C[C@@H](CO)NC(=O)[C@H](Cc1c[nH]cn1)NC(=O)[C@H](Cc1ccccc1)NC(=O)CCSSc1ncccc1[N+](=O)[O-]` ([Mpa](Npys)FH[Leu(ol)]), the melting point lay within 109 to 112 °C.

As for `C=CCOc1ccc2c(C)c(C#N)c(=O)oc2c1C`, the melting point turned out to be 172 °C.

Turning to `Cc1noc(C)c1S(=O)(=O)n1c(=O)sc2ccccc21`, the melting point lay in the range of 140 to 144 °C.

`CC(C)Oc1cccc(Nc2cc(-c3c[nH]nc3-c3ccccn3)ccn2)c1` displayed a melting point of 218 °C.

The molecule `CCCCc1nc(CCNC(=O)OC(C)(C)C)c[nH]1` gave a melting point of 118 to 120 °C.

Molecule `CCSc1ccc(-c2cncnc2)c2c1C(=O)CC(C)C2` (configuration not stated) returned a melting point of 168 to 171 °C.

For `O=C1NN(C(=O)c2cc3ccccc3[nH]2)C(c2ccccc2)C1c1ccccc1` (configuration not stated), the melting point lay within 248 to 250 °C.

As to `COc1ccc(CNC(=O)c2ccc3n2Cc2ccccc2N(C(=O)c2ccc(-c4ccccc4C)c(C)c2)C3)cc1`, the melting point fell in the range of 127 to 128 °C.

The molecule `CC(=O)N1CCN(c2ccc(Nc3nccc(-c4sc(N)nc4C)n3)cc2)CC1` displayed a melting point of 267 to 269 °C.

Take `CN(C)CCOC(=O)c1cnn2c(-c3cccc(C(F)(F)F)c3)ccnc12`: the melting point lay within 119 to 120 °C.

Take `CCOC(=O)c1cc2c3cc4ccccc4cc3ccc2n1C`: the melting point lay within 141 to 144 °C.

Molecule `CC1(C)C(=O)Nc2cc3oc(Cc4ccncc4)nc3cc21` gave a melting point of 208 to 211 °C.

With `CCCCC(CC)CNC(=O)c1cc(C(C)(C)C)c(O)c(C(C)(C)C)c1` (configuration not stated), the melting point fell in the range of 136 to 140 °C.

Consider `COCCOc1ccc(/C=C/C(=O)NS(=O)(=O)NCCc2ccccc2)c(Oc2ncc(C(F)(F)F)cc2Cl)c1`, for which the melting point is 85 to 85.5 °C.

Molecule `CCOC(=O)C1=CC2(CCC1S(=O)(=O)Nc1ccc(F)cc1Cl)OCCCO2` (configuration not stated) returned a melting point of 120 to 121 °C.

On to `Cc1oc(-c2ccccc2)nc1CCOc1ccc(/C=C/CO)cc1`, for which the melting point was 127 to 128 °C.

`Cc1cc([N+](=O)[O-])ccc1Oc1cncc(Cl)c1` came in with a melting point of 80 to 82 °C.

As for `CCc1ccc(O)c(C(=NO)c2ccc(Cl)cc2)c1`, the melting point worked out at 117 °C.

Molecule `CCCCNC(=O)c1nc2cnn(CC)c2nc1C` displayed a melting point of 64 to 65 °C.

`CCC(Cl)C(=O)NCCSc1nc(C(C)(C)C)n[nH]1` (configuration not stated) had a melting point of 68 to 70 °C.

`CS(=O)(=O)c1cccc(NC(=O)c2cnn3c(C(F)(F)F)cc(-c4ccc(C(F)(F)F)c(OCC(F)(F)F)c4)nc23)c1`: the melting point was found to be 227 °C.

The molecule `O=C(O)C1Cc2ccccc2N1S(=O)(=O)c1ccc(-c2ccc(F)cc2F)cc1` (configuration not stated) showed a melting point of 88 to 92 °C.

For the molecule `C[Si](C)(C)OC(CCl)(Cn1cncn1)c1ccc(F)cc1F` (configuration not stated), the melting point fell in the range of 59 to 61 °C.

In turn, `CC(C)Cn1c(C(=O)O)c(-c2ccccc2F)c2cc(OCc3ccccc3)ccc2c1=O` yielded a melting point of 178 to 179 °C.

Take `COc1cc(C)nc(NC(=O)NS(=O)(=O)c2ccsc2C(=O)N2CCCC2=O)n1`: the melting point is 184 to 185 °C.

Molecule `COC(=O)C1CCC2C3CCC4CC(O)C(OC)CC4(C)C3C(=O)CC12C` (configuration not stated) registered a melting point of 170 to 182 °C.

On to `CCN(CC)c1ccc(-c2cc(-c3ccc(C(=O)O)cc3)ccc2OCC(C)O)cc1C(C)(C)C` (configuration not stated), for which the melting point is 193 °C.

`C[Si](C)(C)C#Cc1cn(-c2c(Cl)cc(C(F)(F)F)cc2Cl)nc1C(F)(F)F`: the melting point was in the range of 105 to 108 °C.

`CCOc1ccccc1C(=O)NCCN1CCC(O)(c2ccc(Cl)cc2)CC1` returned a melting point of 171 to 173 °C.

Regarding `COc1cc(C(=O)N(C)CC(CCN2CCC(C(=O)c3nc4ccccc4n3Cc3ccccn3)CC2)c2ccc(F)cc2)cc(OC)c1OC` (configuration not stated), the melting point was in the range of 30 to 35 °C.

`N#Cc1cc(Br)c(OC(=O)OCI)c(Br)c1` registered a melting point of 103 to 105 °C.

As to `CC(C=CCC(C)(C)O)C1CCC2C3=CC=C4CC(O)CCC4(C)C3CCC21C` (configuration not stated), the melting point was 198 to 200 °C.

On to `O=C(Nc1ccccn1)c1cnc2c(c1O)CN(C(=O)OCc1ccccc1)CC2`, for which the melting point was 272 to 274 °C.

`CC(C)CCNC(=O)c1ccccc1-c1ccccc1CNS(=O)(=O)c1ccc(F)cc1` gave a melting point of 149 °C.

Consider `Cc1noc(NS(=O)(=O)c2cccc3nsnc23)c1Br`, for which the melting point lay in the range of 177 to 179 °C.

As to `O=C(O)/C=C/c1c(C2CC2)nc2ccccc2c1-c1ccc(F)cc1`, the melting point was 173 to 174 °C.

For the molecule `CCOC(=O)Nc1ccccc1N1CC2(CCN(C)CC2)c2ccccc21`, the melting point lay within 99.5 to 101 °C.

Consider `CCCCc1nc2cccc(CC(=O)O)c2n1Cc1ccccc1Cl`, for which the melting point lay within 216 to 217 °C.

For the molecule `CCOC(=O)C1(C(=O)O)Cc2cc(OC)c(OC)cc2C1`, the melting point was in the range of 146 to 148 °C.

In turn, `O=C(Nc1ccc(Oc2ccnc(N3CCC(O)CC3)n2)c2ccccc12)c1cc(F)cc(N2CCCCC2)c1` gave a melting point of 182 to 184 °C.

Consider `CCCc1nc2c(N)nc3ccccc3c2n1CCCCS(C)(=O)=O`, for which the melting point was 202 to 204 °C.

The molecule `O=C1C2C=CCCC2C(=O)N1CCO` (configuration not stated) registered a melting point of 48 to 51 °C.

As for `CC(C)S(=O)(=O)n1c(N)nc2ccc(C(O)(CC(=O)N(C)C)c3ccccc3)cc21` (configuration not stated), the melting point lay within 209 to 210 °C.

Consider `CN1CCN(Cc2ccc(Cl)cc2Cl)C(C2=NCCN2)C1` (configuration not stated), for which the melting point was 167 to 169 °C.

`O=C(CCl)N1CCSC1CCc1ccccc1O` (configuration not stated) returned a melting point of 98 °C.

For the molecule `Cc1ncoc1C(C)(O)c1ccco1` (configuration not stated), the melting point was in the range of 73 to 75 °C.

Take `Cc1ccccc1Oc1cccc2c1OC(=O)C2C` (configuration not stated): the melting point fell in the range of 45 to 46 °C.

As to `CCn1c(N)c(C(=O)NC)c(=O)c2ccc(-c3ccc(CC(=O)Nc4ccccn4)nc3)nc21`, the melting point came out at 266 °C.

`N#Cc1cccc(C(F)(F)F)c1O` yielded a melting point of 134 °C.

The molecule `NC1=NN(c2cccc(Cl)n2)C(c2ccc(Cl)cc2)C1` (configuration not stated) returned a melting point of 157 to 158 °C.

Consider `CCCCC(=N)NC(=O)Nc1ccc(OC)cc1`, for which the melting point was in the range of 144 to 145 °C.
